Results taken from the supplement of paper PMC7695840.
Where a name gives a salt, the structure may show the parent alone.

Tests used:
[1] = test system: Staphylococcus aureus MW2 delta-mecA (mecA-); assay: IC50 (growth, competition assay); conditions: cefoxitin: subinhibitory
How it was run: (§1)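 Per plate, DsRed (540/590) and GFP (485/520) readings were normalized between the medians of the single-strain controls, after which No Treatment was fixed at 0.5. These readings came from a 1:1 mix of pre-induced fluorescent S. aureus MW2 strains with and without the resistance gene, grown for 20 h at 37 °C and 90% humidity, unshaken, in LB with a daily-set subinhibitory drug dose in 1536-well plates. Per-strain IC50 meant the dose halving the No Treatment signal, or the maximal signal.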

[2] = test system: Staphylococcus aureus MW2 (mecA+); assay: IC50 (growth, competition assay); conditions: cefoxitin: subinhibitory
How it was run: as §1

CCN(CC)C(=S)SSC(=S)N(CC)CC [Tetraethylthiuram disulfide]
IC50 ([1]; fluorescent label: DsRed): < 9.85 µM
IC50 ([1]; fluorescent label: GFP): < 9.85 µM
IC50 ([2]; fluorescent label: DsRed): 33.4 µM
IC50 ([2]; fluorescent label: GFP): 36.1 µM

C=CC1=C(C(=O)O)N2C(=O)[C@@H](NC(=O)/C(=N\O)c3csc(N)n3)[C@H]2SC1 [Cefdinir (Omnicef)]
IC50 ([1]; fluorescent label: DsRed): < 0.498 µM
IC50 ([1]; fluorescent label: GFP): < 0.498 µM
IC50 ([2]; fluorescent label: DsRed): 4.17 µM
IC50 ([2]; fluorescent label: GFP): 3.6 µM

CC(C)[C@H]1c2ccc(F)cc2CC[C@@]1(CCN(C)CCCc1nc2ccccc2[nH]1)OC(=O)C1CC1 [NNC 55-0396]
IC50 ([1]; fluorescent label: DsRed): < 9.85 µM
IC50 ([1]; fluorescent label: GFP): < 9.85 µM
IC50 ([2]; fluorescent label: DsRed): 14.8 µM
IC50 ([2]; fluorescent label: GFP): 14.9 µM

COc1c(N2C[C@@H]3CCCN[C@@H]3C2)c(F)cc2c(=O)c(C(=O)O)cn(C3CC3)c12 [AVELOX]
IC50 ([1]; fluorescent label: DsRed): < 9.85 µM
IC50 ([1]; fluorescent label: GFP): < 9.85 µM
IC50 ([2]; fluorescent label: DsRed): < 9.85 µM
IC50 ([2]; fluorescent label: GFP): < 9.85 µM

CCOc1nc2cccc(C(=O)OC(C)OC(=O)OC3CCCCC3)c2n1Cc1ccc(-c2ccccc2-c2nn[nH]n2)cc1 (stereo not drawn) [ATACAND]
IC50 ([1]; fluorescent label: DsRed): < 9.85 µM
IC50 ([1]; fluorescent label: GFP): < 9.85 µM
IC50 ([2]; fluorescent label: DsRed): 9.89 µM
IC50 ([2]; fluorescent label: GFP): 14.8 µM

CC[C@H]1OC(=O)[C@H](C)[C@@H](O[C@H]2C[C@@](C)(OC)[C@@H](O)[C@H](C)O2)[C@H](C)[C@@H](O[C@@H]2O[C@H](C)C[C@H](N(C)C)[C@H]2O)[C@](C)(O)C[C@@H](C)[C@@H]2N[C@@H](COCCOC)O[C@H]([C@H]2C)[C@]1(C)O [DYNABAC]
IC50 ([1]; fluorescent label: DsRed): < 9.85 µM
IC50 ([1]; fluorescent label: GFP): < 9.85 µM
IC50 ([2]; fluorescent label: DsRed): 21.4 µM
IC50 ([2]; fluorescent label: GFP): 21.3 µM

NC(=O)c1cnccn1 [TEBRAZID]
IC50 ([1]; fluorescent label: DsRed): 18.2 µM
IC50 ([1]; fluorescent label: GFP): 20.3 µM
IC50 ([2]; fluorescent label: DsRed): 26.7 µM
IC50 ([2]; fluorescent label: GFP): 35.6 µM

CO/N=C(\C(=O)N[C@@H]1C(=O)N2C(C(=O)O)=C(CSc3nc(=O)c(O)nn3C)CS[C@H]12)c1csc(N)n1 [Ceftriaxone sodium]
IC50 ([1]; fluorescent label: DsRed): < 9.85 µM
IC50 ([1]; fluorescent label: GFP): < 9.85 µM
IC50 ([2]; fluorescent label: DsRed): 14.9 µM
IC50 ([2]; fluorescent label: GFP): 14.9 µM

CC[C@H](c1ccc(O)cc1)[C@@H](CC)c1ccc(O)cc1 [HEXESTROL]
IC50 ([1]; fluorescent label: DsRed): < 9.85 µM
IC50 ([1]; fluorescent label: GFP): < 9.85 µM
IC50 ([2]; fluorescent label: DsRed): < 9.85 µM
IC50 ([2]; fluorescent label: GFP): 29.7 µM

C[C@@H]1CN(c2c(F)c(N)c3c(=O)c(C(=O)O)cn(C4CC4)c3c2F)C[C@H](C)N1 [Sparfloxacin]
IC50 ([1]; fluorescent label: DsRed): < 0.498 µM
IC50 ([1]; fluorescent label: GFP): < 0.498 µM
IC50 ([2]; fluorescent label: DsRed): 0.78 µM
IC50 ([2]; fluorescent label: GFP): 0.746 µM

CCCCc1oc2ccc(NS(C)(=O)=O)cc2c1C(=O)c1ccc(OCCCN(CCCC)CCCC)cc1 [Dronedarone HCl (Multaq)]
IC50 ([1]; fluorescent label: DsRed): 5.95 µM
IC50 ([1]; fluorescent label: GFP): 3.07 µM
IC50 ([2]; fluorescent label: DsRed): 14.3 µM
IC50 ([2]; fluorescent label: GFP): 14.9 µM

C=CCCCCCCCCCCCc1ccco1 [AVOCADENOFURAN]
IC50 ([1]; fluorescent label: DsRed): 16.1 µM
IC50 ([1]; fluorescent label: GFP): < 9.85 µM
IC50 ([2]; fluorescent label: DsRed): 48.4 µM
IC50 ([2]; fluorescent label: GFP): 80.9 µM

Cc1cncc(CN2CCC(=C3c4ccc(Cl)cc4CCc4cccnc43)CC2)c1 [Rupatadine Fumarate]
IC50 ([1]; fluorescent label: DsRed): 26.6 µM
IC50 ([1]; fluorescent label: GFP): 20.2 µM
IC50 ([2]; fluorescent label: DsRed): 74.3 µM
IC50 ([2]; fluorescent label: GFP): 112 µM

Cc1onc(-c2c(Cl)cccc2Cl)c1C(=O)N[C@@H]1C(=O)N2[C@@H]1SC(C)(C)[C@@H]2C(=O)O [DYNAPEN]
IC50 ([1]; fluorescent label: DsRed): < 9.85 µM
IC50 ([1]; fluorescent label: GFP): < 9.85 µM
IC50 ([2]; fluorescent label: DsRed): < 9.85 µM
IC50 ([2]; fluorescent label: GFP): < 9.85 µM

CCOC(=O)CCC(=O)O[C@H]1[C@H](O[C@@H]2[C@@H](C)[C@H](O[C@H]3C[C@@](C)(OC)[C@@H](O)[C@H](C)O3)[C@@H](C)C(=O)O[C@H](CC)[C@@](C)(O)[C@H](O)[C@@H](C)C(=O)[C@H](C)C[C@@]2(C)O)O[C@H](C)C[C@@H]1N(C)C [Erythromycin Ethylsuccinate]
IC50 ([1]; fluorescent label: DsRed): < 9.85 µM
IC50 ([1]; fluorescent label: GFP): < 9.85 µM
IC50 ([2]; fluorescent label: DsRed): < 9.85 µM
IC50 ([2]; fluorescent label: GFP): < 9.85 µM

Cc1ccc(S(=O)(=O)c2ccc([N+](=O)[O-])o2)cc1
IC50 ([1]; fluorescent label: DsRed): < 9.85 µM
IC50 ([1]; fluorescent label: GFP): < 9.85 µM
IC50 ([2]; fluorescent label: DsRed): < 9.85 µM
IC50 ([2]; fluorescent label: GFP): < 9.85 µM

N#Cc1c(Cl)c(Cl)c(Cl)c(C#N)c1Cl [CHLOROTHALONIL]
IC50 ([1]; fluorescent label: DsRed): < 9.85 µM
IC50 ([1]; fluorescent label: GFP): < 9.85 µM
IC50 ([2]; fluorescent label: DsRed): < 9.85 µM
IC50 ([2]; fluorescent label: GFP): < 9.85 µM

COc1ncc(-c2ccc3nccc(-c4ccnnc4)c3c2)cc1NS(=O)(=O)c1ccc(F)cc1F
IC50 ([1]; fluorescent label: DsRed): < 9.85 µM
IC50 ([1]; fluorescent label: GFP): < 9.85 µM
IC50 ([2]; fluorescent label: DsRed): < 9.85 µM
IC50 ([2]; fluorescent label: GFP): < 9.85 µM

CCCCCCCCCCCCCCCC(=O)O[C@@H]1[C@@H](O)[C@@H](O)[C@@H]([C@H](NC(=O)[C@@H]2C[C@@H](CCC)CN2C)[C@H](C)Cl)O[C@@H]1SC [Clindamycin palmitate HCl]
IC50 ([1]; fluorescent label: DsRed): < 9.85 µM
IC50 ([1]; fluorescent label: GFP): < 9.85 µM
IC50 ([2]; fluorescent label: DsRed): < 9.85 µM
IC50 ([2]; fluorescent label: GFP): < 9.85 µM

COc1ccc(NC(=O)c2ccc(-c3ccc(-c4noc(C)n4)cc3C)cc2)cc1N1CCN(C)CC1
IC50 ([1]; fluorescent label: DsRed): < 9.85 µM
IC50 ([1]; fluorescent label: GFP): 12.2 µM
IC50 ([2]; fluorescent label: DsRed): 30.1 µM
IC50 ([2]; fluorescent label: GFP): 44.9 µM

COc1ccc([C@@H](C)C(=O)c2ccc(O)cc2O)cc1 [ANGOLENSIN (R)]
IC50 ([1]; fluorescent label: DsRed): < 9.85 µM
IC50 ([1]; fluorescent label: GFP): < 9.85 µM
IC50 ([2]; fluorescent label: DsRed): 22.3 µM
IC50 ([2]; fluorescent label: GFP): 27.7 µM

O=C(/C=C/c1ccc(O)c(O)c1)OCCc1ccccc1 [Caffeic acid phenethyl ester]
IC50 ([1]; fluorescent label: DsRed): 22.9 µM
IC50 ([1]; fluorescent label: GFP): 19.4 µM
IC50 ([2]; fluorescent label: DsRed): 57.7 µM
IC50 ([2]; fluorescent label: GFP): 88.4 µM

CNc1ccc2oc(C[C@H]3O[C@@]4(CC[C@H]3C)O[C@H]([C@H](C)C(=O)c3ccc[nH]3)[C@H](C)C[C@H]4C)nc2c1C(=O)O [Calcimycin]
IC50 ([1]; fluorescent label: DsRed): < 9.85 µM
IC50 ([1]; fluorescent label: GFP): < 9.85 µM
IC50 ([2]; fluorescent label: DsRed): < 9.85 µM
IC50 ([2]; fluorescent label: GFP): < 9.85 µM

CN(C)[C@@H]1C(O)=C(C(N)=O)C(=O)[C@@]2(O)C(O)=C3C(=O)c4c(O)cccc4[C@@](C)(O)[C@H]3[C@H](O)[C@@H]12 [TERRAMYCIN]
IC50 ([1]; fluorescent label: DsRed): < 9.85 µM
IC50 ([1]; fluorescent label: GFP): < 9.85 µM
IC50 ([2]; fluorescent label: DsRed): < 9.85 µM
IC50 ([2]; fluorescent label: GFP): < 9.85 µM

C=C1C(=O)[C@]23[C@H](O)[C@H]1CC[C@H]2[C@@]12CO[C@]3(O)[C@@H](O)[C@@H]1C(C)(C)CC[C@@H]2O [Oridonin (Isodonol)]
IC50 ([1]; fluorescent label: DsRed): 13.7 µM
IC50 ([1]; fluorescent label: GFP): < 9.85 µM
IC50 ([2]; fluorescent label: DsRed): 29.5 µM
IC50 ([2]; fluorescent label: GFP): 51.5 µM

CCn1cc(C(=O)O)c(=O)c2ccc(C)nc21 [Nalidixic acid sodium]
IC50 ([1]; fluorescent label: DsRed): 17.2 µM
IC50 ([1]; fluorescent label: GFP): 16.2 µM
IC50 ([2]; fluorescent label: DsRed): 34 µM
IC50 ([2]; fluorescent label: GFP): 29.8 µM

CC1(C)CCC2=C(O1)c1ccccc1C(=O)C2=O [beta-Lapachone]
IC50 ([1]; fluorescent label: DsRed): < 9.85 µM
IC50 ([1]; fluorescent label: GFP): < 9.85 µM
IC50 ([2]; fluorescent label: DsRed): 12.9 µM
IC50 ([2]; fluorescent label: GFP): 28.3 µM
